Test: mn = molality of the nth substance listed, in mol/kg
Settings: 350 kPa, Liquid, Extra sensitive DSC

C1COCCOCCOCCOCCOCCO1 [1,4,7,10,13,16-hexaoxacyclooctadecane] + O
Settings	apparent molar heat capacity [J/K/mol]
278.15 K, m1 = 0.01001	748
278.15 K, m1 = 0.02001	740.4
278.15 K, m1 = 0.03002	741.5
278.15 K, m1 = 0.0401	742.3
278.15 K, m1 = 0.04995	746.2
278.15 K, m1 = 0.06015	746.9
278.15 K, m1 = 0.08002	744.3
278.15 K, m1 = 0.1224	740.8
278.15 K, m1 = 0.1472	738.5
278.15 K, m1 = 0.1935	734.51
278.15 K, m1 = 0.2925	725.83
283.15 K, m1 = 0.01001	768
283.15 K, m1 = 0.02001	764.2
283.15 K, m1 = 0.03002	764.8
283.15 K, m1 = 0.0401	765.6
283.15 K, m1 = 0.04995	769.1
283.15 K, m1 = 0.06015	769.3
283.15 K, m1 = 0.08002	767.2
283.15 K, m1 = 0.1224	764.3
283.15 K, m1 = 0.1472	762.46
283.15 K, m1 = 0.1935	759.11
283.15 K, m1 = 0.2925	751.64
288.15 K, m1 = 0.01001	788
288.15 K, m1 = 0.02001	782.4
288.15 K, m1 = 0.03002	783.2
288.15 K, m1 = 0.0401	785.4
288.15 K, m1 = 0.04995	788.8
288.15 K, m1 = 0.06015	788.7
288.15 K, m1 = 0.08002	786.6
288.15 K, m1 = 0.1224	784.29
288.15 K, m1 = 0.1472	782.67
288.15 K, m1 = 0.1935	779.7
288.15 K, m1 = 0.2925	773.51
293.15 K, m1 = 0.01001	805.9
293.15 K, m1 = 0.02001	800.2
293.15 K, m1 = 0.03002	800.8
293.15 K, m1 = 0.0401	803.3
293.15 K, m1 = 0.04995	806.1
293.15 K, m1 = 0.06015	806
293.15 K, m1 = 0.08002	804.3
293.15 K, m1 = 0.1224	802.22
293.15 K, m1 = 0.1472	800.93
293.15 K, m1 = 0.1935	798.36
293.15 K, m1 = 0.2925	793.29
298.15 K, m1 = 0.01001	820.2
298.15 K, m1 = 0.02001	817
298.15 K, m1 = 0.03002	817.3
298.15 K, m1 = 0.0401	820
298.15 K, m1 = 0.04995	822.2
298.15 K, m1 = 0.06015	822.4
298.15 K, m1 = 0.08002	820.7
298.15 K, m1 = 0.1224	819.28
298.15 K, m1 = 0.1472	818.39
298.15 K, m1 = 0.1935	816.04
298.15 K, m1 = 0.2925	811.91
303.15 K, m1 = 0.01001	836.9
303.15 K, m1 = 0.02001	832.9
303.15 K, m1 = 0.03002	833.1
303.15 K, m1 = 0.0401	836.5
303.15 K, m1 = 0.04995	838.6
303.15 K, m1 = 0.06015	838.4
303.15 K, m1 = 0.08002	836.6
303.15 K, m1 = 0.1224	835.6
303.15 K, m1 = 0.1472	835.12
303.15 K, m1 = 0.1935	832.91
303.15 K, m1 = 0.2925	829.51
308.15 K, m1 = 0.01001	852.1
308.15 K, m1 = 0.02001	847.8
308.15 K, m1 = 0.03002	848.2
308.15 K, m1 = 0.0401	852.3
308.15 K, m1 = 0.04995	853.8
308.15 K, m1 = 0.06015	853.6
308.15 K, m1 = 0.08002	852.2
308.15 K, m1 = 0.1224	851.14
308.15 K, m1 = 0.1472	850.86
308.15 K, m1 = 0.1935	849
308.15 K, m1 = 0.2925	846.24
313.15 K, m1 = 0.01001	866.4
313.15 K, m1 = 0.02001	862
313.15 K, m1 = 0.03002	862.5
313.15 K, m1 = 0.0401	867.6
313.15 K, m1 = 0.04995	868.8
313.15 K, m1 = 0.06015	868.4
313.15 K, m1 = 0.08002	867.4
313.15 K, m1 = 0.1224	866.13
313.15 K, m1 = 0.1472	866.03
313.15 K, m1 = 0.1935	864.46
313.15 K, m1 = 0.2925	862.08
318.15 K, m1 = 0.01001	881.2
318.15 K, m1 = 0.02001	875.7
318.15 K, m1 = 0.03002	875.9
318.15 K, m1 = 0.0401	881.8
318.15 K, m1 = 0.04995	882.5
318.15 K, m1 = 0.06015	882.3
318.15 K, m1 = 0.08002	881.7
318.15 K, m1 = 0.1224	880.23
318.15 K, m1 = 0.1472	880.31
318.15 K, m1 = 0.1935	878.85
318.15 K, m1 = 0.2925	876.99
323.15 K, m1 = 0.01001	893
323.15 K, m1 = 0.02001	888.8
323.15 K, m1 = 0.03002	888.4
323.15 K, m1 = 0.0401	894.9
323.15 K, m1 = 0.04995	895.6
323.15 K, m1 = 0.06015	895.5
323.15 K, m1 = 0.08002	894.7
323.15 K, m1 = 0.1224	893.76
323.15 K, m1 = 0.1472	893.83
323.15 K, m1 = 0.1935	892.3
323.15 K, m1 = 0.2925	890.8
328.15 K, m1 = 0.01001	904.7
328.15 K, m1 = 0.02001	900.1
328.15 K, m1 = 0.03002	900.3
328.15 K, m1 = 0.0401	907.2
328.15 K, m1 = 0.04995	907.7
328.15 K, m1 = 0.06015	907.3
328.15 K, m1 = 0.08002	906.8
328.15 K, m1 = 0.1224	905.99
328.15 K, m1 = 0.1472	906.11
328.15 K, m1 = 0.1935	904.68
328.15 K, m1 = 0.2925	903.37
333.15 K, m1 = 0.01001	915.3
333.15 K, m1 = 0.02001	910.7
333.15 K, m1 = 0.03002	911
333.15 K, m1 = 0.0401	918.1
333.15 K, m1 = 0.04995	918.5
333.15 K, m1 = 0.06015	918
333.15 K, m1 = 0.08002	917.5
333.15 K, m1 = 0.1224	916.74
333.15 K, m1 = 0.1472	917.09
333.15 K, m1 = 0.1935	915.79
333.15 K, m1 = 0.2925	914.65

From the NIST ThermoML archive (doi:10.1016/j.jct.2004.07.027)
